# From patent US9701670B2, “Pyrazolyl-ureas as kinase inhibitors” (RESPIVERT LIMITED, priority 2013, dated 2017)
# Columns and labels:
# [1] = target: p38 MAPKα isoform (MAPK14) (Homo sapiens (Human), UniProt Q16539); assay: p38 MAPKα enzyme inhibition (FRET, Z-LYTE), Method 1; type: biochemical; details: Method 1 (Table 4a1)
# [2] = test system: Differentiated U937 cells; assay: (l) Cell viability: MTT assay; type: cell-based, human; details: 1 μg/mL
# Outline: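 Differentiated U937 cells were exposed to compound at 1 or 10 μg/mL either 4 h in 5% FCS RPMI1640 or 24 h in 10% FCS RPMI1640, then given MTT for 1 h, DMSO-solubilised and read at 550 nm. Percent viability loss versus 0.5% DMSO vehicle; apparent gains appear negative.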
# [3] = test system: β-catenin in d-U937 cells; assay: (m) Accumulation of β catenin in d-U937 cells; type: cell-based, human
# Method: U937 cells, a human monocytic cell line, are differentiated into macrophage-type cells by incubation with PMA; (100 ng/mL) for between 48 to 72 hr. The cells are then incubated with either final concentrations of test compound or vehicle for 18 hr. The induction of β-catenin by the test compounds is stopped by replacing the media with 4% formaldehyde solution. Endogenous peroxide activity is neutralised by incubating with quenching buffer (100 μL, 0.1% sodium azide, 1% H2O2 in PBS with 0.05% Tween-20) for 20 min. The cells are washed with washing buffer (200 μL; PBS containing 0.05% Tween-20) and incubated with blocking solution (200 μL; 5% milk in PBS) for 1 hr, re-washed with washing buffer (200 μL) and then incubated overnight with anti-β-catenin antibody solution (50 μL) in 1% BSA/PBS (BD, Oxford, UK).
# After washing with washing buffer (3×200 μL; PBS containing 0.05% Tween-20), cells are incubated with an HRP-conjugated secondary antibody solution (100 μL) in 1% BSA/PBS (Dako, Cambridge, UK) and the resultant signal is determined colourimetrically (OD: 450 nm with a reference wavelength of 655 nm) using TMB substrate (50 μL; R&D Systems, Abingdon, UK). This reaction is stopped by addition of 1N H2SO4 solution (50 μL). Cells are then washed with washing buffer and 2% crystal violet solution (50 μL) is applied for 30 min. After washing with washing buffer (3×200 μL), 1% SDS (100 μL) is added to each well and the plates are shaken lightly for 1 hr prior to measuring the absorbance at 595 nm (Varioskan® Flash, Thermo-Fisher Scientific).
# The measured OD450-655 readings are corrected for cell number by dividing the OD450-655 by the OD595 readings. […] A signal less than 0.15 (15%) of that observed for the standard control is designated as “-ve”.
# Chain of p38 MAPKα isoform (MAPK14) (Q16539 whole entry, canonical isoform): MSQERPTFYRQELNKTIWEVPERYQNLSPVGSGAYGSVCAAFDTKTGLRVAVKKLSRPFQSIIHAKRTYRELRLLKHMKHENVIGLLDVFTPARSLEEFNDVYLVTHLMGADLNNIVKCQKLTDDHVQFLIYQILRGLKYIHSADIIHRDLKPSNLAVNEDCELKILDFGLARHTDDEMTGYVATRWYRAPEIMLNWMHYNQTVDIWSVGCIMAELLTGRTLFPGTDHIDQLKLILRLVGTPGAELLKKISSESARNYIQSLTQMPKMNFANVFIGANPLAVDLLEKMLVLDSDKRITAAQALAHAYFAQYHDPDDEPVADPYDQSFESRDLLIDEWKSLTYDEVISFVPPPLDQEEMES
IC50 [1] [nM],SMILES,Cell viability at time point in d-U937 cells 4 h [2],Cell viability at time point in d-U937 cells 24 h [2],% β-catenin induction ([3]; 1 μg/mL test compound) [%],% β-catenin induction ([3]; 5 μg/mL test compound) [%],"β-catenin inductive effect relative to the effect produced by the Reference Compound at 1 μg/mL ([3]; test concentration of 10 μg/mL, found to be negative)"
24,"COCCNC(=O)c1cc(Nc2nccc(Oc3ccc(NC(=O)Nc4cc(C(C)(C)C)nn4-c4ccc(C)cc4)c4ccccc34)n2)cc(OC)c1 [Example 67, 3-((4-((4-(3-(3-(tert-butyl)-1-(p-tolyl)-1H-pyrazol-5-yl)ureido)naphthalen-1-yl)oxy)pyrimidin-2-yl)amino)-5-methoxy-N-(2-methoxyethyl)benzamide]","−ve (−ve and +ve indicate that the value is below and above respectively, the no significant effect threshold, defined as 30% inhibition at 1 μg/mL at the time point indicated.)","−ve (−ve and +ve indicate that the value is below and above respectively, the no significant effect threshold, defined as 30% inhibition at 1 μg/mL at the time point indicated.)",–,–,–
< 1,"COc1cc(Nc2nccc(Oc3ccc(NC(=O)Nc4cc(C(C)C)nn4-c4ccc(C)cc4)c4ccccc34)n2)cc(C(=O)N(C)CCN2CCOCC2)c1 [Example 68, 3-((4-((4-(3-(3-isopropyl-1-(p-tolyl)-1H-pyrazol-5-yl)ureido)naphthalen-1-yl)oxy)pyrimidin-2-yl)amino)-5-methoxy-N-methyl-N-(2-morpholinoethyl)benzamide]","−ve (−ve and +ve indicate that the value is below and above respectively, the no significant effect threshold, defined as 30% inhibition at 1 μg/mL at the time point indicated.)","−ve (−ve and +ve indicate that the value is below and above respectively, the no significant effect threshold, defined as 30% inhibition at 1 μg/mL at the time point indicated.)",–,–,–
2,"COc1cc(Nc2nccc(Oc3ccc(NC(=O)Nc4cc(C(C)C)nn4-c4ccc(C)cc4)c4ccccc34)n2)cc(C(=O)N2CCN(C)CC2)c1 [Example 69, 1-(3-isopropyl-1-(p-tolyl)-1H-pyrazol-5-yl)-3-(4-((2-((3-methoxy-5-(4-methylpiperazine-1-carbonyl)phenyl)amino)pyrimidin-4-yl)oxy)naphthalen-1-yl)urea]","−ve (−ve and +ve indicate that the value is below and above respectively, the no significant effect threshold, defined as 30% inhibition at 1 μg/mL at the time point indicated.)","−ve (−ve and +ve indicate that the value is below and above respectively, the no significant effect threshold, defined as 30% inhibition at 1 μg/mL at the time point indicated.)",–,–,–
5,"COc1ccc(Nc2nccc(Oc3ccc(NC(=O)Nc4cc(C(C)C)nn4-c4ccc(C)cc4)c4ccccc34)n2)cc1C(=O)NCCN1CCOCC1 [Example 70, 5-((4-((4-(3-(3-isopropyl-1-(p-tolyl)-1H-pyrazol-5-yl)ureido)naphthalen-1-yl)oxy)pyrimidin-2-yl)amino)-2-methoxy-N-(2-morpholinoethyl)benzamide]","−ve (−ve and +ve indicate that the value is below and above respectively, the no significant effect threshold, defined as 30% inhibition at 1 μg/mL at the time point indicated.)","−ve (−ve and +ve indicate that the value is below and above respectively, the no significant effect threshold, defined as 30% inhibition at 1 μg/mL at the time point indicated.)",–,–,–
2,"COc1cc(Nc2cc(Oc3ccc(NC(=O)Nc4cc(C(C)C)nn4-c4ccc(C)cc4)c4ccccc34)ncn2)cc(C(=O)NCCN2CCOCC2)c1 [Example 71, 3-((6-((4-(3-(3-isopropyl-1-(p-tolyl)-1H-pyrazol-5-yl)ureido)naphthalen-1-yl)oxy)pyrimidin-4-yl)amino)-5-methoxy-N-(2-morpholinoethyl)benzamide]","−ve (−ve and +ve indicate that the value is below and above respectively, the no significant effect threshold, defined as 30% inhibition at 1 μg/mL at the time point indicated.)","−ve (−ve and +ve indicate that the value is below and above respectively, the no significant effect threshold, defined as 30% inhibition at 1 μg/mL at the time point indicated.)",–,–,–
< 1,"COc1cc(Nc2cc(Oc3ccc(NC(=O)Nc4cc(C(C)(C)C)nn4-c4ccc(C)cc4)c4ccccc34)ncn2)cc(C(=O)NCCN2CCOCC2)c1 [Example 72, 3-((6-((4-(3-(3-(tert-butyl)-1-(p-tolyl)-1H-pyrazol-5-yl)ureido)naphthalen-1-yl)oxy)pyrimidin-4-yl)amino)-5-methoxy-N-(2-morpholinoethyl)benzamide]","−ve (−ve and +ve indicate that the value is below and above respectively, the no significant effect threshold, defined as 30% inhibition at 1 μg/mL at the time point indicated.)","−ve (−ve and +ve indicate that the value is below and above respectively, the no significant effect threshold, defined as 30% inhibition at 1 μg/mL at the time point indicated.)",–,–,–
–,"C#Cc1cc(Nc2nccc(Oc3ccc(NC(=O)Nc4cc(C(C)(C)C#N)nn4-c4ccc(C)cc4)c4ccccc34)n2)cc(C(=O)NCCN2CCOCC2)c1 [Example 78, 3-((4-((4-(3-(3-(2-Cyanopropan-2-yl)-1-(p-tolyl)-1H-pyrazol-5-yl)ureido)-naphthalen-1-yl)oxy)pyrimidin-2-yl)amino)-5-ethynyl-N-(2-morpholinoethyl)benzamide]",–,–,9,0,–
–,"C#Cc1cc(Nc2nccc(Oc3ccc(NC(=O)Nc4cc(C(C)(C)C)nn4-c4ccc(C)cc4)c4ccccc34)n2)cc(C(=O)NC(C)(C)CN2CCOCC2)c1 [Example 82, 3-((4-((4-(3-(3-(tert-Butyl)-1-(p-tolyl)-1H-pyrazol-5-yl)ureido)naphthalen-1-yl)oxy)pyrimidin-2-yl)amino)-5-ethynyl-N-(2-methyl-1-morpholinopropan-2-yl)-benzamide]",–,–,0,9,–
10,"C=C(C)c1cc(NC(=O)Nc2ccc(Oc3ccnc(Nc4cc(OC)cc(C(=O)NCCN5CCOCC5)c4)n3)c3ccccc23)n(-c2ccc(OC)cc2)n1 [Example 86, 3-Methoxy-5-((4-((4-(3-(1-(4-methoxyphenyl)-3-(prop-1-en-2-yl)-1H-pyrazol-5-yl)ureido)naphthalen-1-yl)oxy)pyrimidin-2-yl)amino)-N-(2-morpholinoethyl)-benzamide]","−ve (−ve and +ve indicate that the value is below and above respectively, the no significant effect threshold, defined as 30% inhibition at 1 μg/mL at the time point indicated.)","−ve (−ve and +ve indicate that the value is below and above respectively, the no significant effect threshold, defined as 30% inhibition at 1 μg/mL at the time point indicated.)",–,–,less than 15%
